Measured values from US10729770B2, “Bacterial influence on regulation of appetite via ClpB protein mimicry of alpha-MSH” (priority 2013, dated 2020).

Assays:
[1] = biological target: T1, ClpB protein (Escherichia coli, UniProt P63284); details: in vivo
Experimental: Plates were washed (5 min for three times) in PBS with 0.05% Tween 200, pH 7.4, and then incubated overnight at 4° C. with 100 μl of mouse plasma diluted 1:200 in PBS to determine free auto-Ab levels or diluted 1:200 in dissociative 3M NaCl and 1.5M glycine buffer, pH 8.9, to determine total auto-Ab levels. The plates were washed (three times) and incubated with 100 μl of alkaline phosphatase (AP)-conjugated goat antimouse IgG (1:2000) or anti-mouse IgM (1:1000), all obtained from Jackson ImmunoResearch Laboratories, Inc. (West Grove, Pa., USA). Following washing (three times), 100 μl of p-nitrophenyl phosphate solution (Sigma) was added as AP substrate. After 40 min of incubation at room temperature, the reaction was stopped by adding 3 N NaOH. The optical density was determined at 405 nm using a microplate reader Metertech 960 (Metertech Inc., Taipei, Taiwan). Blank optical density values resulting from the reading of plates without addition of plasma samples were subtracted from the sample optical density values. Each determination was done in duplicate.
IgG and IgM antibodies reactive with ClpB were detected by enzyme-linked immunosorbent assay using corresponding anti-mouse or anti-human AP-conjugated antibodies (Jackson ImmunoResearch Laboratories, Inc.) as described above.

[2] = biological target: T1, ClpB protein; details: ClpB-immunized mice
Experimental: (§2) IgG purification and affinity assay were performed according to a published protocol (Legrand et al., Protoc Exch 2014, doi:10.1038/protex2014.004). Extraction of plasma globulins was done by plasma acidification and separation on C18 SEP column (Phoenix Pharmaceuticals, Burlingame, Calif., USA), then 500 μl of mouse plasma was mixed with 500 μl of buffer A (1% trifluoroacetic acid in water). The column was activated in 1 ml of buffer B (60% acetonitrile in 1% trifluoroacetic acid) by 3 min centrifugation with 700 r.p.m. and rinsed three times with 3 ml of buffer A. Diluted plasma (1:1 in buffer A) was added to the column and the effluent (1 ml) was saved (frozen at −20° C.) for further purification of IgG. Total IgG were purified from the effluents of mouse plasma samples using the Melon Gel Kit (Thermo Fisher Scientific, Rockford, Ill., USA). Plasma effluents diluted 1:4 in kit's purification buffer was added on washed melon gel deposited in a column. Column was spun 1 min at 6000 r.p.m., and the IgG containing effluent was saved and frozen at −20° C. before lyophilization. […]
(§3) Between injections of each sample, the binding surface was regenerated with 10 mM NaOH, resulting in the same baseline level of the sensorgram. The affinity kinetic data were analyzed using BiaEvaluation 4.1.1 program (GE Healthcare). […]

[3] = biological target: T2, adrenocorticotropic hormone (Homo sapiens, UniProt P01189); experiment: ELISA of plasma IgG reacting with adrenocorticotropic hormone; assay type: in vivo; details: ClpB immunization study
T2 construct: purchased Bachem AG
T2 sequence (P01189 138-176 limits assumed): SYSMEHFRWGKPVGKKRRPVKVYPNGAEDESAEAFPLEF
Description: (§1) Each determination was done in duplicate.

[4] = ClpB immunization in mice: body weight, food intake and feeding pattern (BioDAQ cages); assay type: in vivo
Experimental: All experimental protocols were conducted according to US National Institutes of Health guidelines and EU directives, and animal experiments were approved by the Institutional Ethical Committees. Two-month-old male C57BI6 mice (Janvier Laboratories, L'Arbresle, France) were acclimated to the animal facility for 1 week with 12 h light-dark cycle, lights on at 0700 hours and were kept in standard mouse-holding cages (n=8) each. Mice were fed ad libitum with standard pelleted rodent chow (RM1 diet, SDS, UK) with drinking water always available and were manipulated daily by gentle holding and measuring body weight. During acclimatization, mice were distributed between four cages to obtain the similar mean body weight per mouse per cage. After 1 week of acclimatization, mice from each cage were assigned to one of four study group and received following treatments: (i) Group 1, ClpB immunization (n=8): ClpB protein (Delphi Genetics, Gosselies, Belgium) 50 μg per mouse in 200 μl of 1:1 (vol:vol) of PBS with Complete Freund's Adjuvant (Sigma, St Louis, Mo., USA), intraperitoneally (i.p.); (ii) Group 2, adjuvant injection controls (n=8): 200 μl of Complete Freund's Adjuvant in PBS (1:1 (vol:vol), i.p.); (iii) Group 3, PBS injection controls (n=8): 200 μl of PBS (i.p.); and (iv) Group 4, intact controls (n=8): received no injections, and then all mice were returned to their holding cages. Fifteen days later, mice were given a boost immunization and the following treatments: (i) Group 1 (n=8), ClpB protein (Delphi Genetics) 50 μg per mouse in 200 μl of 1:1 (vol:vol) of PBS with Incomplete Freund's Adjuvant (Sigma) i.p.; (ii) Group 2 (n=8): 200 μl of Incomplete Freund's Adjuvant in PBS (1:1 (vol:vol), i.p.); (iii) Group 3, (n=8): 200 μl of PBS (i.p.); and iv) Group 4, (n=8): received no injections. Next day after the boost, mice were placed individually into the BioDAQ mouse cages (Research Diets, Inc., New Brunswick, N.J., USA) each equipped with an automatic feeding monitor. Food (Serlab, Montataire France) and drinking water were available ad libitum and body weight was measured daily. After 3 days of acclimatization to the BioDAQ cages, mice received the following treatments: Groups 1, 2 and 3 (each n=8), that is, mice that have been immunized with ClpB, injected with adjuvants and with PBS, respectively, all received an acute injection of α-MSH peptide (Bachem AG), 100 μg·kg^−1 body weight in 100 μl of PBS (i.p.) at 1000 hours. The control mice (n=8) received PBS only (i.p.). Feeding data was continuously monitored and analyzed using the BioDAQ data viewer 2.3.07 (Research Diets). For the meal pattern analysis, the inter-meal interval was set at 300 s.

[5] = system: anti-α-MSH IgG; details: 20 and 10 μg of ClpB
Experimental: Following 2D-PAGE, E. coli cytoplasmic proteins were transferred onto Hybond-ECL PVDF membrane (GE Healthcare) via a dry transfer method (Trans Blot Cell, Bio-Rad, USA) and a constant current of 0.8 mA.cm^−2 of the membrane size for 2 h. After transfer, membranes were blocked with 5% (wt:vol) milk (Regilait, France) in phosphate-buffered saline (PBS; 10 mmol·l^−1 […], and 150 mM·l^−1 NaCl) plus 0.05% (vol:vol) Tween 20.

[6] = biological target: T3, α-MSH (Homo sapiens, UniProt P01189); experiment: ELISA of plasma auto-antibodies reacting with α-MSH; assay type: in vivo
T3 construct: endogenous peptide hormone of the melanocortin family, with a tridecapeptide structure; purchased Bachem AG
Description: as §1

[7] = Locomotor activity and anxiety tests (open field, elevated O-maze) in immunized mice; assay type: in vivo
Experimental: After the feeding study, mice were placed in individual mouse-holding cages with food and water available ad libitum, and were analyzed for locomotor activity and anxiety in 0-maze (Med Associate, Inc., St Albans, Vt., USA) tests performed during 2 consecutive days. Two hours after the 0-maze test, mice were killed by decapitation in a guillotine and trunk blood was collected into EDTA-containing tubes. Plasma was separated by centrifugation at 3500 r.p.m. ([…]) for 10 min at 4° C. and stored at −80° C. before assay.
After feeding study in the BioDAQ cages, mice were analyzed for locomotor activity using a Versamax Animal Activity Monitor (AccuScan Instruments, Inc., Columbus, Ohio, USA). Next day after the locomotor activity test, all mice were tested for their anxiety in an elevated O-maze. The elevated-O-maze is a variation of more commonly used elevated plusmaze pharmacologically validated for anxiety testing in rodents. The advantage of the O-maze is that it lacks the ambiguous central square of the traditional plus-maze. The O-maze consisted of a circular infrared platform (outer diameter 120 cm) elevated 80 cm above the floor, featuring two open and two closed segments made of gray plastic. The closed segments were enclosed by walls extending 20 cm above the surface of the maze and covered with a black infrared plexiglas lid. Each test started by placing the mouse into one of the two closed segments. The test lasted 5 min and was recorded using a video camera placed above the O-maze and the EthoVision video tracking software (Noldus IT, Wageningen, The Netherlands). Measurements of distance and time spent in the open and closed segments were analyzed. Between each mouse tests, the 0-maze was cleaned with 30% ethanol.

[8] = biological target: T3, α-MSH; experiment: Affinity kinetics assay (surface plasmon resonance, BIAcore) of mouse IgG for α-MSH; assay type: binding; details: ClpB-immunized mice compared with controls
Experimental: as §2, §3

[9] = ClpB-immunized mice, last 10 days
[10] = ClpB-immunized mice, α-MSH 100 μg/kg i.p.
[11] = open field, between study groups

T1 sequence (P63284 whole entry): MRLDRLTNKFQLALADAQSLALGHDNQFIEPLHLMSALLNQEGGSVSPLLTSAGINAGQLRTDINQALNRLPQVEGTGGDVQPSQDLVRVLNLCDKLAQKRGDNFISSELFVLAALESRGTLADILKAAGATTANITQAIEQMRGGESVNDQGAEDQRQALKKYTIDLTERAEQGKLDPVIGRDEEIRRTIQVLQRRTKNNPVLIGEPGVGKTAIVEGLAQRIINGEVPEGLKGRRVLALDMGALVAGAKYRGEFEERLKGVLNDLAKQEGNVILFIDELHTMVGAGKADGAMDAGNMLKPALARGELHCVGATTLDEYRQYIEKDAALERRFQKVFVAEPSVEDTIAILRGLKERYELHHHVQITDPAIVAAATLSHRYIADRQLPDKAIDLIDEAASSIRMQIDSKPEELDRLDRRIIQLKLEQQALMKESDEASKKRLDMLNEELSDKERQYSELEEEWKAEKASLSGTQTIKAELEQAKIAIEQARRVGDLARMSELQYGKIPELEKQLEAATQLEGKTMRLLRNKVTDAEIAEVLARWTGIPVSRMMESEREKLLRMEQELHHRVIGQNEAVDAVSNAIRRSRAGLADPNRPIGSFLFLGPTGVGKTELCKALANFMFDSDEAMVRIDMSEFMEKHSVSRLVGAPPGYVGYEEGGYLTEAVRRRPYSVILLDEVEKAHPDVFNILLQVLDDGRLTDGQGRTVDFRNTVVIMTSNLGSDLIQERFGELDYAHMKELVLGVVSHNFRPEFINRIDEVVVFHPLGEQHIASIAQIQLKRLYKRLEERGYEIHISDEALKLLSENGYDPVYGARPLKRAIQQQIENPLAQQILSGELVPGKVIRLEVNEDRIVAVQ

Substance: ClpB: chaperone protein ClpB from E. Coli K12, SEQ ID NO: 1, 857 amino acids; recombinant protein (Delphi Genetics) used for immunization
- plasma anti-ClpB IgG levels [1]: strong increase
- plasma levels of anti-ClpB IgG after adsorption with α-MSH [1]: significantly reduced
- affinity of anti-ClpB IgG [2]: lower affinities
- plasma adrenocorticotropic hormone-reactive IgG [3]: No significant differences
- body weight for a few days after injections ([4]; ClpB 50 μg per mouse i.p. together with adjuvant, C57Bl6 mice): lower
- body weight vs controls ([4]; ClpB-immunized mice, 4 weeks later): +5%
- meal number [4, 9]: did not change
- meal size [4, 9]: increased
- mean daily food intake as compared with other groups ([4]; ClpB-immunized mice, last 10 days of the experiment): +13%
- 24 h food intake following i.p. injection of α-MSH [4, 10]: not affected
- body weight following i.p. injection of α-MSH [4, 10]: not affected
- Western blot revealed with anti-α-MSH IgG [5]: showed a 96-kDa band
- plasma levels of α-MSH IgM auto-Abs ([6]; ClpB immunization study, between the groups): did not significantly differ
- plasma levels of α-MSH-reactive IgG ([6]; ClpB-immunized mice): Increased
- time spent in the closed arms of the O-maze ([7]; ClpB-immunized mice compared with all other groups): less time
- distance moved in the closed arms of the O-maze ([7]; ClpB-immunized mice compared with controls): shorter distance
- time spent in the open vs border areas [7, 11]: did not significantly differ
- total locomotor activity [7, 11]: did not significantly differ
- affinity of α-MSH-reactive IgG for α-MSH [8]: lower affinities
